Measurements reported in patent US7429482B2, “Screening tools for discovery of novel anabolic agents” (United States of America as represented by the Department …, priority 2005, dated 2008).

Tests used:
GADD45 = experiment: Acute denervation: GADD45 mRNA in EDL and soleus (qPCR); format: in vivo, rat; settings: significant
Procedure: Male Wistar rats weighing 250 gm (Taconic Farms, Germantown, N.Y.) were provided food and water ad libitum and were housed in a temperature and humidity controlled environment providing a 12:12 hour day-night cycle. For surgical procedures, animals were anesthetized with ketamine/xylazine. The left sciatic nerve was exposed by blunt dissection, and a 1 to 2 mm piece of this nerve was excised just below the level of the femoral head. A sham surgery was performed on the right hind limb in which the sciatic nerve was exposed but was not transected. Model 2002 Alzet pumps were implanted subcutaneously on the back. […] A pellet containing 15 mg of testosterone (Innovative Research of America, Sarasota, Fla.) administered as a continuous infusion (5 mg/wk), or a pellet containing placebo, was inserted into a subcutaneous pouch. […]
Total RNA was extracted from skeletal muscle (20 mg) by homogenization in guanidine thiocyanate using a Polytron followed by extraction using phenol-chloroform (Chomczynski and Sacchi, Anal Biochem 162: 156-159, 1987). […] Total RNA was then eluted and quantified by absorbance at 260 nm. […] Levels of gene expression in the denervated muscle were expressed as fold induction relative to muscle from the sham-denervated leg of animals administered vehicle. […] Fold-induction was determined using the 2^−ΔΔCt method, using expression of 18S RNA as the normalization control. […]

[1] = system: ARE reporter gene (MMTV hormone response element); experiment: ARE (MMTV hormone response element) luciferase reporter in C2C12 and C2C12.AR cells; format: cell-based
Source text: The reporter genes pMAF3.1, pMAF2.4, pMAF948, pMAF400, and pMAF400-241 express firefly luciferase under the control of promoter regions of the human MAFbx gene and are described in Example 1. The rARC562G vector, encoding rat AR with a C562->G mutation in the first zinc binding module that disrupts binding of AR to DNA was described by Palvimo et al. (Mol Endocrinol 7: 1399-1407, 1993) pAR.4RKM (expressing AR with 4 R/K->M mutations in the nuclear localization sequence that is unable to enter the nucleus) and pAR.ABC (lacking the ligand binding domain) were described by Zhou et al. (J Biol Chem 269: 13115-13123, 1994). The pBabe.puro retroviral backbone described by Morgenstern and Land (Nucleic Acids Res 18: 3587-3596, 1990) was modified by introduction of a Not1 site. […]
Cells were seeded into wells of 24-well plates (5×10^5 cells/well) then maintained overnight in DMEM with 10% CDS-FBS. […] Cells were maintained for an additional 24 hours, at which time both firefly and renilla luciferase activity were determined using the Dual Luciferase Assay (Promega, Madison, Wis.) and a Berthold 96-well plate luminometer. […]
To determine whether C2C12 cells expressed AR, total RNA from these cells was extracted and analyzed by real-time PCR and compared to levels of AR mRNA in gastrocnemius muscle from male mice. […]

SMILES | reduction in GADD45 expression (GADD45; denervated EDL) [%] | decrease in GADD45 expression (GADD45; denervated soleus) [%] | luciferase expression by ARE-Luc reporter ([1]; C2C12.AR cells (human AR)) | increase in luciferase expression over baseline ([1]; wild-type C2C12 cells, MMTV hormone response element reporter)
C[C@]12CC[C@H]3[C@@H](CCC4=CC(=O)CC[C@@H]43)[C@@H]1CC[C@@H]2O [nandrolone] | 21 | 40 | – | –
C[C@]12CC[C@H]3[C@@H](CCC4=CC(=O)CC[C@@]43C)[C@@H]1CC[C@@H]2O [testosterone] | – | – | marked increase | about 2 fold
